Laboratory results from paper PMC8398714, “Synthesis and Evaluation of Biological Activities of Bis(spiropyrazolone)cyclopropanes: A Potential Application against Leishmaniasis” (Molecules, 2021).
“Also recorded” adds a separate entry of the source.

Assays:
[1] = tested on: Leishmania mexicana cells; test: Comet assay of Leishmania mexicana cells; format: cell-based; design: Comet tail length, mean (vary) / Comet tail length, median (Q50): unit not given here; conditions: L. mexicana, 24 h at MIC; for Comet tail length, mean (vary) / Comet tail length, median (Q50): MMS 0.011%, Kruskal-Wallis $means; for Genotoxic effect (DNA breaks) in comet assay: in words
Protocol: We quantified DNA breaks by a comet assay to determine if these compounds are genotoxic. Here, L. mexicana cells were exposed for 24 h to MIC concentrations previously determined (see Materials and Methods Section) for each compound. Figure 1 represents the measurements obtained for tail length. All compounds generated DNA breaks expect 4s. […] Samples with DMSO and MMS (0.011%) were included as controls. Some representative pictures are shown at Figure S4. The effect of 4p could not be determined because the cells appear to be very damaged. The data was subjected via a Kruskal–Wallis one-way ANOVA (Statistical Analyses S2). […] These observations support a mechanism of action through the generation of DNA damage.
For leishmania, a method previously described for yeast was adapted. Briefly, after incubating the cells in presence of the compounds for 24 h, cells were collected and washed with buffer S (1 M sorbitol, 25 mM KH2PO4 in ultrapure water and adjust to pH 6.5 with NaOH). The pellet was resuspended in 400 µL of 1.5% LMA and 40 µL was spread (second layer) onto previously agarose-coated slides (first layer).
Slides were immersed in cold lysis buffer (30 mM NaOH, 1 M NaCl, 0.05 % (w/v) lauroylsarcosine, 50 mM EDTA, and 10 mM Tris–HCl, pH 10) for 25 min and then in cold electrophoresis alkaline buffer (30 mM NaOH, 10 mM EDTA, and 10 mM Tris–HCl, pH 10). They were then subjected to electrophoresis at 26V and 300 mA. Slides were immersed in neutralization buffer (10 mM Tris–HCl, pH 7.4; prepared in advance and stored at 4 °C) for 10 min at room temperature. The cells were then treated with proteinase K (20 min, 37 °C in humid chamber), followed by a new neutralization step. To dehydrate the slides, they were immersed in EtOH 90% and EtOH absolute for 10 min each. Finally, the slides were stained with Sybr Gold 1X.
The DNA migration was analyzed using a LEICA microscope with fluorescence (40×) by scoring 100 cells per slide in duplicate. The tail moment parameter was then analyzed by the Comet Score software.

HeLa = test: MTS cell viability assay on HeLa cells; format: cell-based; conditions: Homo sapiens, 48 h, Dox 1 µM, mean ± SEM, NA = no activity, read-out: Percentage (%) of inhibition, HeLa
RKO = test: MTS cell viability assay on RKO cells; format: cell-based; conditions: Homo sapiens, 48 h; for inhibition at 100 µM: Dox 1 µM, mean ± SEM, NA = no activity, read-out: Percentage (%) of inhibition, RKO; for IC50: 15-150 µM, mean ± SEM of triplicates
Protocol: (§1) Five tumor human cancer cell lines—cerebral astrocytoma (D-384), grade IV prostatic adenocarcinoma (PC-3), mammary adenocarcinoma (MCF-7), human colon carcinoma (RKO) and lung carcinoma (A-549)—along with one immortalized hamster cell line (CHO K-1) were used. The cells PC-3, MCF-7 and RKO were cultured in RPMI-1640, D-384 on DMEM and CHO K-1 on HAM F-12 medium supplemented with 10% fetal bovine serum (FBS, Invitrogen, Karlsruhe, Germany), 1% antibiotic-antimitotic solution (100 units/mL penicillin G, 100 µg/mL streptomycin, and 0.25 µg/mL amphotericin B, Gibco, Grand Island, NY, USA), and 1% L-glutamine (2 mM, Gibco). The cells were incubated at 37 °C in a 5% CO2 atmosphere. The viable cells were counted using the trypan blue exclusion method in a hemocytometer.
(§2) The MTS (5-[3-(carboxymethoxy)phenyl]-3-(4,5-dimethyl-2-thiazolyl)-2-(4-sulfo- phenyl)-2H-tetrazolium inner salt) cell viability assay was used to assess the inhibitory effects of the extracts on the survival of human cancer cell lines. A total of 3–5 × 10^3 cells/well were seeded into 96-well plates and were allowed to adhere for 24 h. […] Each concentration/assay was performed three times. Dimethyl sulfoxide (DMSO) was used as a negative control at a final concentration of 0.1% v/v, and 1 µM Doxorubicin was used as a positive control. The cells were incubated with the treatments for 48 h, after which 20 µL MTS (5 mg/mL, Aqueous One Solution Reagent, Gibco) was added and further incubated for 4 h at 37 °C. The absorbance was measured at 570 nm. The data obtained with cells treated with DMSO were defined to represent 100% viability.

A-549 = test: MTS cell viability assay on A-549 cells; format: cell-based; conditions: Homo sapiens, A549; 100 µM, 48 h; Dox 1 µM; mean ± SEM; NA = no activity; read-out: Percentage (%) of inhibition, A-549
Protocol: as §1, §2

[2] = DPPH radical scavenging assay; conditions: 30 min, 515 nm
Protocol: The stock solution of the compounds was prepared by dissolving 4 in dimethyl sulfoxide (DMSO) to a concentration of 4 mg/mL. The solution was diluted with methanol until a concentration of 400 µg/mL was obtained and then used immediately.
The experimental procedure was adapted from the literature. Briefly, 100 µL of a 0.2 mM methanol solution of DPPH (2, 2-diphenyl-1-picrylhydrazyl) radical were added to 100 µL of methanolic solutions of 4 prepared as serial two-fold dilutions from the stock solution in 96-well microfilter plates. Standards and edaravone were also prepared in the same concentrations. The mixture was incubated in dark at room temperature for 30 min and the absorbance was read at 515 nm on a Cytation 5 (BioTek) spectrophotometer.
The % DPPH scavenging activity was then calculated by using the following formula:(1) % DPPH scavenging = 100 × [(Asample+DPPH−Asample blank)/(ADPPH−Asolvent)]
The antioxidant activity of the compound was expressed as IC50, which is defined as the concentration that could scavenge 50% of the DPPH free radical. The IC50 values were calculated in GraphPad Prism 7.02 (GraphPad Software, Corp.) The results are given as a mean ± standard deviation (SD) of experiments done in triplicate.

SMILES	Comet tail length, mean (vary) [1]	Comet tail length, median (Q50) [1]	inhibition at 100 µM (HeLa) [%]	inhibition at 100 µM (RKO) [%]	IC50 (RKO) [µM]	inhibition at 100 µM (A-549) [%]	melting point [°C]	IC50 [2] [µM]	Genotoxic effect (DNA breaks) in comet assay [1]
CC1=NN(c2ccccc2)C(=O)[C@@]12C(c1ccc(C(F)(F)F)cc1)[C@@]21C(=O)N(c2ccccc2)N=C1C (relative stereo) [4r, (5R*,6R*)-11-(4-Trifluoromethylphenyl)-4,10-dimethyl-2,8-diphenyl-2,3,8,9-tetraazadispiro[4.0.4.1]undeca-3,9-diene-1,7-dione]	96310000	98500000	50.2 ± 0.52	64.71 ± 0.52	60.7 ± 9.95	28.6 ± 3.71	154.6 to 156.5	> 300	–
CC1=NN(c2ccccc2)C(=O)[C@@]12C(c1ccc(OC(F)(F)F)cc1)[C@@]21C(=O)N(c2ccccc2)N=C1C (relative stereo) [4s, (5R*,6R*)-11-(4-Trifluoromethoxyphenyl)-4,10-dimethyl-2,8-diphenyl-2,3,8,9-tetraazadispiro[4.0.4.1]undeca-3,9-diene-1,7-dione]	39720000	39500000	43.6 ± 1.75	70.2	63.8 ± 6.48	24.4 ± 1.36	150.5 to 151.5	> 300	weakest
CC1=NN(c2ccccc2)C(=O)[C@@]12C(c1cccc(F)c1)[C@@]21C(=O)N(c2ccccc2)N=C1C (relative stereo) [4t, (5R*,6R*)-11-(3-Fluorophenyl)-4,10-dimethyl-2,8-diphenyl-2,3,8,9-tetraazadispiro[4.0.4.1]undeca-3,9-diene-1,7-dione]	124410000	116000000	5.06 ± 2.43	47.6 ± 0.95	–	3.43 ± 2.42	152.1 to 153	> 300	biggest genotoxic effects
CSc1ccc(C2[C@]3(C(=O)N(c4ccccc4)N=C3C)[C@@]23C(=O)N(c2ccccc2)N=C3C)cc1 (relative stereo) [4u, (5R*,6R*)-11-(4-Thiomethylphenyl)-4,10-dimethyl-2,8-diphenyl-2,3,8,9-tetraazadispiro[4.0.4.1]undeca-3,9-diene-1,7-dione]	179560000	177500000	34.7 ± 2.29	41 ± 1.49	–	3.64 ± 1.81	154.4 to 157.3	> 300	highest genotoxic activity; also recorded: strongest effects
